Laboratory results: ChEMBL document CHEMBL1126408, “CP-70,030 and CP-75,998: The first non-peptide antagonists of bombesin and gastrin releasing peptide” (Bioorg Med Chem Lett, 1992)
pIC50: −log10 of the molar value. Activity calls are given as the source filed them. The rule behind the calls is not given here.

What was measured:
Rattus norvegicus [1] = species on record: Rattus norvegicus; experiment: Antagonistic activity as a measure of bombesin-induced phosphoinositide turnover in rat pituitary GH3 cells; 1.5-3 uM; type: functional, cell-based
Rattus norvegicus [2] = species on record: Rattus norvegicus; experiment: Agonistic activity up to a conc 30 uM measured as elevation of inositol phosphate production in absence of bombesin in rat pituitary GH3 cells; NA is no measurable agonist activity; type: functional, cell-based
[3] = biological target: Gastrin-releasing peptide receptor (Homo sapiens) (UniProt P30550); experiment: Compound up to a conc of 32 uM was tested for displacement of radiolabeled GRP from its receptors on bombesin-responsive human SCLC cell line N592; […]
[4] = biological target: Gastrin-releasing peptide receptor (Rattus norvegicus, UniProt P52500); experiment: Compound was evaluated for displacement of radiolabeled [I-125]GRP from rat brain receptor; 1.5-3 uM
Chain of Gastrin-releasing peptide receptor (P52500 whole entry): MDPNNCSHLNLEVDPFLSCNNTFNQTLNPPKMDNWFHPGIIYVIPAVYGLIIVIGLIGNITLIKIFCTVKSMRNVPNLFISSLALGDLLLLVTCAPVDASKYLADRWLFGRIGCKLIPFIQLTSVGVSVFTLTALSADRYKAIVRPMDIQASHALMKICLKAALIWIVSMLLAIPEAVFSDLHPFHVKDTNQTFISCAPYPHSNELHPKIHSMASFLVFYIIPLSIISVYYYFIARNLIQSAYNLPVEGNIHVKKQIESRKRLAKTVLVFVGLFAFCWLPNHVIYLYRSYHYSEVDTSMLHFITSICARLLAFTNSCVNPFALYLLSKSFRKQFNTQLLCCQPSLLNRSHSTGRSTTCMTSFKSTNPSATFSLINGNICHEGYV

Chain of Gastrin-releasing peptide receptor (Homo sapiens) (P30550 whole entry, looked up): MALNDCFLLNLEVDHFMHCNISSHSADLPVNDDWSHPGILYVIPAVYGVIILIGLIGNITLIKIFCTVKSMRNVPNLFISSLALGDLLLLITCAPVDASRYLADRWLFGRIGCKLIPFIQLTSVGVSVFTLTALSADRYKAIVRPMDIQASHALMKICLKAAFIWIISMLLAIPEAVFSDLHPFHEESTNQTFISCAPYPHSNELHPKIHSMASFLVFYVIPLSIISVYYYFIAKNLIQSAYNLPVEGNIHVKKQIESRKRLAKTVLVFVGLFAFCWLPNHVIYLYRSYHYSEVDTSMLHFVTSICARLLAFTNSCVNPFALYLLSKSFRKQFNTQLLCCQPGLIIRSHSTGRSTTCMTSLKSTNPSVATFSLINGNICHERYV

CCN1C(=O)/C(=C/c2cc(C(C)(C)C)c(O)c(C(C)(C)C)c2)c2cc(OCc3ccccc3C(=O)O)ccc21 was tested, and the pIC50 (Rattus norvegicus [1]) was 5.82, the Activity (Rattus norvegicus [2]) was “inactive” and the Activity [3] was “inactive”. The pIC50 [4] was 5.82.
For O=C1NC(=O)C2(N1)C(=O)N(Cc1ccc(Cl)c(Cl)c1)c1ncc(Br)cc12 (stereo not drawn), the pIC50 (Rattus norvegicus [1]) was 5.82, the Activity (Rattus norvegicus [2]) was “inactive” and the Activity [3] was “inactive”. For the same compound, the pIC50 [4] was 5.82.
